{
  "source": "patent US12070443B2",
  "about": "“Methods of treating and preventing breast cancer with S-equol” (The Board of Regents of the University of Texas System, priority 2018, dated 2024)",
  "key": {"TNBC [1]": {"test_system": "TNBC", "settings": "cited from earlier work"}, "TNBC [2]": {"test_system": "TNBC", "assay": "Pilot biomarker clinical study of Ki67 in TNBC subjects", "assay_type": "in vivo, human", "description": "A pilot biomarker clinical study was performed in 20 subjects with documented TNBC to determine the effect of the ERβ agonist S-equol on Ki67 an indicator of tumor cell proliferation. Tumor cell proliferation was measured by immunohistological staining for Ki-67. See, FIG. 13 for the outline of the protocol. Ki-67 is encoded by the gene MKI67 gene and is required to maintain individual mitotic chromosomes dispersed in the cytoplasm following nuclear envelope disassembly. Measuring the fraction of Ki-67-positive cells in a tumor is known to be a reliable parameter for assessing cancer patient prognosis. Subjects with TNBC are known to have very high levels of Ki67.\nPatients enrolled in the study received a history, physical, laboratory assessment, radiological imaging, and diagnostic biopsies. Immunohistochemistry (IHC) of Ki67 (proliferation marker), total ERβ, and pY36-ERβ (phosphorylated ERβ), B7H1 (also known as PDL-1) and BRCA1 (breast cancer 1, early onset) were conducted using core needle biopsy tissue samples prior to treatment. Patients were given oral S-equol 50 mg, twice daily for approximately two weeks (10-21 days) prior to the scheduled oncologic surgeries or start of primary systemic therapy. Tumor samples were obtained from the surgery or the two-week repeat core needle biopsy. Post-treatment IHC evaluation of Ki67, total ERβ, phosphorylated ERβ (pY36) and BRCA1 were obtained. Ki67 reduction is a validated surrogate marker of both short and long term hormonal therapy efficacy in trials of human breast cancer and was compared pre- and post-treatment with S-equol. […] A c-DNA microarray platform was also used to discover downstream transcriptional targets of ERβ resulting from activation by S-equol.\nWomen eligible for the study had newly diagnosed, previously untreated, triple negative breast cancer, with an intact primary breast tumor of any size. All stages of the disease were eligible. They took S-equol during the time they underwent standard preoperative evaluation or pre-therapeutic work-up for advanced disease, such as staging procedures or central line placement. If primary surgery was performed, tissue leftover after standard diagnostic evaluation was used for the two-week biomarker assessment. […] See, FIG. 9.\nA standard procedure for acquiring core biopsy with a Bard 14-gauge needle was utilized for determining TNBC prior to enrollment. Whenever possible, the tumor tissues used for IHC analyses were acquired at the same time as the diagnostic core biopsy. The tissue samples were sent for staining of total and pY36 ERβ and Ki67, and analyzed. Testing for ERα, PR, and HER-2 was performed using validated methods. TNBC tumors were defined as less than 5% nuclear staining of carcinoma cells for ERα and PR and either 0, 1, or 2+ staining for HER-2 by IHC. Whole-Genome DASL HT platform from Illumina, which is designed for gene expression profiling with extremely low input of RNA (50 pg), was used to interrogate paired FFPE tissue obtained before and after exposure to S-equol.\nThe primary analysis estimated the geometric mean change of the Ki67 expression from baseline to two weeks. This was performed using a one-sample t-test of the pre/post differences in the log-transformed data, and summarized by the 95% confidence interval. […]"}, "[3]": {"test_system": "AT3 mammary tumor cell line", "assay": "AT3 mammary tumor challenge in mice, S-equol and/or anti-PD-1", "assay_type": "in vivo", "settings": "AT3 tumors", "description": "The following three murine mammary tumor lines were tested to determine the effects of a PD-1 inhibitor, S-equol and a combination of the two therapies on tumor growth: (1) E0771 (B6 background), (2) AT-3 (B6 background), and (3) 4T1 (BalbC background). This experimental design includes four arms (using AT-3 as an example): (1) controls, (2) αPD-1, (3) S-equol, and (4) αPD-1+S-equol (FIG. 3) by injecting into mice 2×10^5 cells subcutaneously into the 4th mammary gland fat pad."}, "ERβ pY36": {"target": "T1, ERβ pY36 (Homo sapiens, UniProt Q92731)", "T1 construct": "MDA-MB-231, a human TNBC breast cancer cell line; endogenous in cells; host or cells: MDA-MB-231 (human TNBC line; also as xenograft tumours in athymic nude mice)", "T1 sequence (Q92731 whole entry)": "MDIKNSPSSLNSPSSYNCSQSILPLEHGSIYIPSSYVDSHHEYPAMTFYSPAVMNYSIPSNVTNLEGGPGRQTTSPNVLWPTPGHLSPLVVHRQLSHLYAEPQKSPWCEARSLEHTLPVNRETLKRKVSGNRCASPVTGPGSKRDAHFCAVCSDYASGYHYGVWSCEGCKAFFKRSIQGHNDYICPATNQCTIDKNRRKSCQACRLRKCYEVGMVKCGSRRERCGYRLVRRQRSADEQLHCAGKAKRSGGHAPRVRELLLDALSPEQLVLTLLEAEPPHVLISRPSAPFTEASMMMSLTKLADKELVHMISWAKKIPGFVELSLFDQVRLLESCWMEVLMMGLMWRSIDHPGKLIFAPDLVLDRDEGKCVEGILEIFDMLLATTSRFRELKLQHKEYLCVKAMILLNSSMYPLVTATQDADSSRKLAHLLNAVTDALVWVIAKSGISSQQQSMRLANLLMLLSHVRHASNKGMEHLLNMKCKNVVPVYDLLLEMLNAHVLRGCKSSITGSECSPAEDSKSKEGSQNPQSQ", "assay": "pY36-specific phosphorylation signal in MDA-MB-231 cells", "assay_type": "cell-based", "settings": "MDA-MB-231 cells (FIG. 18A)"}, "[4]": {"test_system": "MDA-MB-231 cell-derived xenograft tumor", "assay": "MDA-MB-231 xenograft in athymic nude mice", "assay_type": "in vivo", "description": "Further work in a preclinical animal model supports the notion of using S-equol to treat TNBC breast cancer. In immunocompromised mouse xenograft experiments, which used MDA-MB-231, a human TNBC breast cancer cell line, growth of tumors was suppressed by 60% with S-equol treatment compared to control. 5×10^6 MDA-MB-231 cells were injected orthotopically into mammary gland fat pads of 6 week-old female athymic nude mice (Harlan). When the tumor masses reached 50 to 80 mm^3 (about one week after the inoculation), the mice were given daily subcutaneous injections of S-equol (20 or 60 mg/kg per day) or PBS as a vehicle control. Tumor development was followed by caliper measurements along two orthogonal axes: length (L) and width (W) and volume (V) was estimated by the formula V=[L×(W^2)]/2. Xenograft tumors harvested from mice were fixed in 10% neutral-buffered formalin, dehydrated, embedded in paraffin, and sectioned at 3 μm thickness. Representative tumor sections from vehicle control and S-equol-treated mice were tested for Ki-67 expression to assess cell proliferation, and for ERβ pY36. Statistical significance in the experiments was assessed by two-tailed Student's t test. In all assays, p<0.05 was considered statistically significant. See, Yuan et al. 2016 listed below, which is incorporated by reference herein for all purposes."}, "Ki67 expression": {"test_system": "Ki67 expression", "settings": "after two weeks, IMPACT trial; cited from earlier work"}, "[5]": {"settings": "of 17 evaluable patients, S-equol 50 mg twice daily"}},
  "note": "“Also recorded” adds a separate entry of the source. Like-named read-outs stand apart in the source and are kept apart here.",
  "data": [
    {"compound": "atezolizumab: an αPD-L1 antibody", "values": [
      {"measurement": "response rate", "setting": "TNBC [1]; 21 evaluable PD-L1 expressing TNBC tumors", "result": 19, "unit": "%"}
    ]},
    {"compound": "pembrolizumab: an αPD-1 antibody", "values": [
      {"measurement": "response rate", "setting": "TNBC [1]; Phase 1, 27 women, pretreated chemotherapy resistant metastatic TNBC expressing PD-L1", "result": 18.4, "unit": "%"}
    ]},
    {"compound": "Oc1ccc([C@H]2COc3cc(O)ccc3C2)cc1", "note": "[S-equol]", "values": [
      {"measurement": "patients with 0-20% reduction in Ki-67", "setting": "TNBC [2]; [5]", "result": 7, "unit": "patients"},
      {"measurement": "patients with greater than 20% reduction in Ki-67", "setting": "TNBC [2]; [5]", "result": "one"},
      {"measurement": "patients with greater than 30% reduction in Ki-67", "setting": "TNBC [2]; [5]", "result": 4, "unit": "patients"},
      {"measurement": "patients with no reduction in Ki-67", "setting": "TNBC [2]; [5]", "result": 5, "unit": "patients"},
      {"measurement": "Ki67 change pre- vs post-treatment", "setting": "TNBC [2]; oral S-equol 50 mg twice daily, 10-21 days, TNBC patients", "result": "measurable decrease in Ki67; also recorded: measurable decline in Ki67"},
      {"measurement": "tumor size", "setting": "[3]; excised tumors (FIG. 4C)", "result": "reduce tumor size compared to control"},
      {"measurement": "tumor weight", "setting": "[3]; anti-PD-1 200 μg every 3 days, S-equol 50 mg/kg per day (FIG. 4B)", "result": "reduce tumor weight compared to control"},
      {"measurement": "tumor volume", "setting": "[3]; anti-PD-1 200 μg every 3 days, S-equol 50 mg/kg per day, over 35 days post-challenge (FIG. 4A)", "result": "reduce tumor volume compared to control"},
      {"measurement": "pY36-specific phosphorylation signal", "setting": "ERβ pY36", "result": "enhanced"},
      {"measurement": "growth of tumors suppressed compared to control", "setting": "[4]; daily subcutaneous S-equol 20 or 60 mg/kg per day", "result": 60, "unit": "%"},
      {"measurement": "xenograft tumor growth", "setting": "[4]; in words (FIGS. 8, 15, 18B)", "result": "inhibits tumor growth in vivo; also recorded: reduces the growth of TNBC cells; also recorded: inhibited"}
    ]},
    {"compound": "CC/C(=C(\\c1ccccc1)c1ccc(OCCN(C)C)cc1)c1ccccc1", "note": "[tamoxifen]", "values": [
      {"measurement": "change in the geometric mean of Ki67 expression", "setting": "Ki67 expression", "result": "−59.5", "unit": "%"}
    ]},
    {"compound": "avelumab: another αPD-L1 antibody", "values": [
      {"measurement": "response rate", "setting": "TNBC [1]; 168 TNBC tumors unselected for PD-L1 expression", "result": 8.6, "unit": "%"}
    ]},
    {"compound": "CC(C)(C#N)c1cc(Cn2cncn2)cc(C(C)(C)C#N)c1", "note": "[anastrazole]", "values": [
      {"measurement": "change in the geometric mean of Ki67 expression", "setting": "Ki67 expression", "result": "−76", "unit": "%"}
    ]}
  ]
}
